Laboratory results: patent US12691175B2, “Drug transdermal delivery system” (Xiamen University, priority 2019, dated 2026)

Legend:
venous thrombus = assay: Rabbit ear thrombus model, topical low-molecular-weight heparin therapy; type: in vivo, New Zealand rabbit; settings: 48 hours; for state of thrombus in blood vessel (slice, FIG. 7): 300 U/kg topical
Procedure: An experimental method: • A topical injection of thrombin is used to establish an animal model of a rabbit ear thrombus: hair of an ear of the New Zealand rabbit is carefully shaven off, a blood vessel section from an external ear vein with a length of about 2 cm and having fewer branches is selected, 40 U of the thrombin is injected into the blood vessel section, and a hemostatic clip is used to block a blood flow of the blood vessel section at a proximal end of a heart. After 2 hours, the blood is completely coagulated to form a venous thrombus, and the hemostatic clip is then loosen. A length of the venous thrombus is measured and recorded, and the rabbit ear successfully modeled is sliced into a slice by the cryostat microtome. After the slice is stained by a hematoxylin and eosin (HE) tissue staining method and fixed by the resin, and the slice is mounted for observation. With respect to the various administration methods, the rabbits successfully modeled are divided into a therapy group for a proximal venous thrombus and a therapy group for a distal venous thrombus, and the rabbits are topically treated by the low-molecular-weight heparin (300 U/kg rabbit body weight) for therapy. […] A pretreatment method is the same as described with respect to in vitro.

[1] = Staining of topical penetration sites of the skin with gentian violet solution; parameters: species or system nude mouse
Procedure: Staining of topical penetration sites of the skin: the nude mouse skin topically pretreated by three groups, including the sonophoresis group, the 2 mg spicule group, and the group using sonophoresis and then using the spicules (the method is the same as the aforementioned method), a gentian violet solution is added into the donor compartment, stained for 24 hours, and washed by an ethanol solution, and the residue liquid on the surface is absorbed with absorbent paper, a penetration situation of a surface of the stratum corneum layer for the staining solution is observed, the stratum corneum layer and the epidermal layer of the skin are then scrapped by a blade, and a penetration situation of the dermis layer for the staining solution is observed.

Compound	state of thrombus in blood vessel (slice, FIG. 7) (venous thrombus; sonophoresis then spicules)	state of thrombus in blood vessel (slice, FIG. 7) (venous thrombus; spicules alone)	thrombus dissolvability degree compared with intravenous injection (FIG. 8B) (venous thrombus; distal venous thrombus, sonophoresis then spicules at distal end)	thrombus length variation (FIG. 8A) (venous thrombus; proximal venous thrombus, sonophoresis then spicules)	infiltration of staining solution into the dermis layer ([1]; sonophoresis alone or spicules alone, stained 24 hours (FIGS. 6D and 6E))	infiltration of staining solution into the dermis layer ([1]; sonophoresis and spicules, stained 24 hours, stratum corneum and epidermal layer scraped off (FIG. 6F))
dalteparin [low-molecular-weight heparin]	almost completely dissolved	not completely dissolved	no significant difference	basically dissolved	–	–
CN(C)c1ccc(C(=C2C=CC(=[N+](C)C)C=C2)c2ccc(N(C)C)cc2)cc1 [staining solution, gentian violet]	–	–	–	–	almost no residue staining solution in the dermis layer	a large amount of the staining solution can still infiltrate into the dermis layer
